# Assay results published in article PMC4835225 (Chembiochem : a European journal of chemical biology, 2015).
# Biological target: hENO1 (Homo sapiens, UniProt P06733)
# Assay: isothermal titration calorimetry
# Assay type: binding
# Conditions: stoichiometry 1.4-1.6 molecules of 1 per hENO1
# Chain of hENO1 (P06733 2-434): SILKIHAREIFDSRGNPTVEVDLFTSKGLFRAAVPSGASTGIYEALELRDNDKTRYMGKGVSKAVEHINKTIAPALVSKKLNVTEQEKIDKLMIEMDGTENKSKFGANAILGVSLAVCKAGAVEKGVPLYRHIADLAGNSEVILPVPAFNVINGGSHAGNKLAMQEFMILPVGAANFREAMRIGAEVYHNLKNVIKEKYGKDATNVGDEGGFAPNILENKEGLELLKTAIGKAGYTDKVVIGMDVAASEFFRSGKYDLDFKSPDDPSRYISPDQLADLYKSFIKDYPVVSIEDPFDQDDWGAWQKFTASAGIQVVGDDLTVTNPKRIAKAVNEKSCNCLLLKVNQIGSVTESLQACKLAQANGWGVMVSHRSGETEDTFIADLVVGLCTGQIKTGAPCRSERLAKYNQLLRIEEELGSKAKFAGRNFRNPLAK
structure (smiles),measurement,value
"O=C1c2c(cc(O)c([C@@H]3CCc4cc(Cl)c(Cl)n43)c2O)-c2cc(Cl)c(Cl)n21 [compound 1, (-)-chlorizidine A]",Kd,1900 ± 900 nM
